Measurements taken from PubChem BioAssay AID2060487 (Molecular Pharmacology Branch, DTP, NCI, 2025).

System: 997537-175-T-J1-PDC complex spheroid viability
Experiment: Anticancer human tumor 997537-175-T-J1-PDC patient-derived colon adenocarcinoma cell line growth inhibition [GQUAD]
Settings: for IC50: curve of first compound; for viability, T/C: stronger effect = lower value
Procedure, shortened: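 Viability of tumor cells grown as complex spheroids with endothelial and stromal cells, exposed to drug combinations. Top concentration at or near clinical Cmax (else 10 microM), diluted in half-log increments.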

[1] = second compound 0.0316 µM, first compound 0.0316 µM
[2] = second compound 0.0316 µM, first compound 0.1 µM
[3] = second compound 0.0316 µM, first compound 0.316 µM
[4] = second compound 0.0316 µM, first compound 1 µM
[5] = second compound 0.0316 µM, first compound 3.16 µM
[6] = second compound 0.0316 µM, first compound 10 µM
[7] = second compound 0.1 µM, first compound 0.0316 µM
[8] = second compound 0.1 µM, first compound 0.1 µM
[9] = second compound 0.1 µM, first compound 0.316 µM
[10] = second compound 0.1 µM, first compound 1 µM
[11] = second compound 0.1 µM, first compound 3.16 µM
[12] = second compound 0.1 µM, first compound 10 µM
[13] = second compound 0.316 µM, first compound 0.0316 µM
[14] = second compound 0.316 µM, first compound 0.1 µM
[15] = second compound 0.316 µM, first compound 0.316 µM
[16] = second compound 0.316 µM, first compound 1 µM
[17] = second compound 0.316 µM, first compound 3.16 µM
[18] = second compound 0.316 µM, first compound 10 µM
[19] = second compound 1 µM, first compound 0.0316 µM
[20] = second compound 1 µM, first compound 0.1 µM
[21] = second compound 1 µM, first compound 0.316 µM
[22] = second compound 1 µM, first compound 1 µM
[23] = second compound 1 µM, first compound 3.16 µM
[24] = second compound 1 µM, first compound 10 µM
[25] = second compound 3.16 µM, first compound 0.0316 µM
[26] = second compound 3.16 µM, first compound 0.1 µM
[27] = second compound 3.16 µM, first compound 0.316 µM
[28] = second compound 3.16 µM, first compound 1 µM
[29] = second compound 3.16 µM, first compound 3.16 µM
[30] = second compound 3.16 µM, first compound 10 µM
[31] = second compound 10 µM, first compound 0.0316 µM
[32] = second compound 10 µM, first compound 0.1 µM
[33] = second compound 10 µM, first compound 0.316 µM
[34] = second compound 10 µM, first compound 1 µM
[35] = second compound 10 µM, first compound 3.16 µM
[36] = second compound 10 µM, first compound 10 µM
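Further: spheroids exposed to the agents for 7 days.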
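Wherever viability, T/C is given: 100% = DMSO vehicle control viability.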

Which results are given for `CC1COCCN1c1cc(C2(O)CC3CCC(C2)O3)c2cnn(-c3ccn[nH]3)c2n1` (centres undefined) + CN(C)c1ccc(Nc2c3ccc(NC(=O)CCN4CCCC4)cc3nc3cc(NC(=O)CCN4CCCC4)ccc23)cc1?
IC50 (second compound 0.0316 µM): 786 nM; IC50 (second compound 0.1 µM): 461 nM; IC50 (second compound 0.316 µM): 1690 nM; IC50 (second compound 1 µM): 211 nM; IC50 (second compound 3.16 µM): > 10000 nM; IC50 (second compound 10 µM): > 10000 nM; viability, T/C [1]: 78.9%; viability, T/C [2]: 74.6%; viability, T/C [3]: 57.6%; viability, T/C [4]: 46.9%; viability, T/C [5]: 44.2%; viability, T/C [6]: 51.1%; viability, T/C [7]: 105%; viability, T/C [8]: 79%; viability, T/C [9]: 55.3%; viability, T/C [10]: 37.1%; viability, T/C [11]: 43.8%; viability, T/C [12]: 48.5%; viability, T/C [13]: 86.9%; viability, T/C [14]: 60.2%; viability, T/C [15]: 58.5%; viability, T/C [16]: 42.2%; viability, T/C [17]: 48.7%; viability, T/C [18]: 54.2%; viability, T/C [19]: 77.7%; viability, T/C [20]: 52.8%; viability, T/C [21]: 44.8%; viability, T/C [22]: 40.7%; viability, T/C [23]: 49%; viability, T/C [24]: 60%; viability, T/C [25]: 55.8%; viability, T/C [26]: 65.7%; viability, T/C [27]: 70.2%; viability, T/C [28]: 45.6%; viability, T/C [29]: 47.9%; viability, T/C [30]: 66.5%; viability, T/C [31]: 82.7%; viability, T/C [32]: 61.9%; viability, T/C [33]: 69.4%; viability, T/C [34]: 47%; viability, T/C [35]: 41.8%; viability, T/C [36]: 66.5%

What does the source list for `CC(=O)O[C@H]1C(=O)[C@@]2(C)[C@H]([C@H](OC(=O)c3ccccc3)[C@]3(O)C[C@H](OC(=O)[C@H](O)[C@@H](NC(=O)c4ccccc4)c4ccccc4)C(C)=C1C3(C)C)[C@]1(OC(C)=O)CO[C@@H]1C[C@@H]2O` + CN(C)c1ccc(Nc2c3ccc(NC(=O)CCN4CCCC4)cc3nc3cc(NC(=O)CCN4CCCC4)ccc23)cc1?
IC50 (second compound 0.0316 µM): 79.1 nM; IC50 (second compound 0.1 µM): 67.7 nM; IC50 (second compound 0.316 µM): 74.6 nM; IC50 (second compound 1 µM): 53.1 nM; IC50 (second compound 3.16 µM): < 31.6 nM; IC50 (second compound 10 µM): 59 nM; viability, T/C [1]: 75.2%; viability, T/C [2]: 43.6%; viability, T/C [3]: 28.1%; viability, T/C [4]: 21.5%; viability, T/C [5]: 32.2%; viability, T/C [6]: 29.4%; viability, T/C [7]: 67.3%; viability, T/C [8]: 40.9%; viability, T/C [9]: 36.9%; viability, T/C [10]: 21.1%; viability, T/C [11]: 30.7%; viability, T/C [12]: 34.9%; viability, T/C [13]: 78.3%; viability, T/C [14]: 36.5%; viability, T/C [15]: 34.5%; viability, T/C [16]: 19.4%; viability, T/C [17]: 16.6%; viability, T/C [18]: 21.1%; viability, T/C [19]: 71.6%; viability, T/C [20]: 9.98%; viability, T/C [21]: 35.1%; viability, T/C [22]: 18.1%; viability, T/C [23]: 29.6%; viability, T/C [24]: 24.8%; viability, T/C [25]: 37.7%; viability, T/C [26]: 45.5%; viability, T/C [27]: 31.9%; viability, T/C [28]: 18.1%; viability, T/C [29]: 20.1%; viability, T/C [30]: 41.8%; viability, T/C [31]: 72%; viability, T/C [32]: 28.8%; viability, T/C [33]: 34.4%; viability, T/C [34]: 35.7%; viability, T/C [35]: 29.8%; viability, T/C [36]: 27.3%
